# Assay results taken from ChEMBL document CHEMBL4818987, “Recent advances of podophyllotoxin/epipodophyllotoxin hybrids in anticancer activity, mode of action, and structure-activity relationship: An update (2010-2020)” (Eur J Med Chem, 2020).
# What was measured:
# HCT-116 [1] = assay: Potency index, ratio of etoposide IC50 to test compound IC50 for antiproliferative activity against human HCT116 cells; format: functional
# A549 [2] = assay: Antiproliferative activity against human A549 cells incubated for 3 days by MTT assay; format: functional, cell-based; details: A549, 72 h
# HepG2 [3] = assay: Antiproliferative activity against human HepG2 cells incubated for 3 days by MTT assay; format: functional, cell-based; details: HepG2, 72 h
# HCT-116 [4] = assay: Antiproliferative activity against human HCT116 cells incubated for 3 days by MTT assay; format: functional, cell-based; details: HCT-116, 72 h
# HepG2 [5] = assay: Potency index, ratio of etoposide IC50 to test compound IC50 for antiproliferative activity against human HepG2 cells; format: functional
# A549 [6] = assay: Potency index, ratio of etoposide IC50 to test compound IC50 for antiproliferative activity against human A549 cells; format: functional
# [7] = Terminal half life in Sprague-Dawley rat at 2.5 mg/kg, iv measured after 5 to 1440 mins by LC-MS/MS analysis; format: ADME, organism-based; details: in vivo, time 5-1440 min, read-out: beta t1/2 (converted)
# [8] = Plasma clearance in Sprague-Dawley rat at 2.5 mg/kg, iv measured after 5 to 1440 mins by LC-MS/MS analysis; format: ADME, organism-based; set-up: dose 2.5 mg/kg, time upper 1440 min, time lower 5 min; details: time 5-1440 min, dose 2.5 mg/kg
# [9] = MRT in Sprague-Dawley rat at 2.5 mg/kg, iv measured after 5 to 1440 mins by LC-MS/MS analysis; format: ADME, organism-based; details: in vivo, time 5-1440 min
# [10] = Mean initial plasma concentration in Sprague-Dawley rat at 2.5 mg/kg, iv measured after 5 to 1440 mins by LC-MS/MS analysis; format: ADME, organism-based; details: rat, plasma, iv, time 5-1440 min, dose 2.5 mg/kg, read-out: C0
# [11] = AUCinfinity in Sprague-Dawley rat at 2.5 mg/kg, iv measured after 5 to 1440 mins by LC-MS/MS analysis; format: ADME, organism-based; set-up: route intravenous, dose 2.5 mg/kg, time upper 1440 min, time lower 5 min; details: in vivo, 2.5 mg/kg
# DU-145 = assay: Antiproliferative activity against human DU145 cells by MTT assay; format: functional, cell-based
# MCF7 [12] = assay: Antiproliferative activity against human MCF7 cells incubated for 48 hrs by MTT assay; format: functional, cell-based; details: MCF7, 48 h
# SMMC-7721 [13] = assay: Antiproliferative activity against human SMMC-7721 cells incubated for 48 hrs by MTT assay; format: functional, cell-based; details: SMMC-7721, 48 h
# [14] = Selectivity index, ratio of CC50 for human BEAS2B cells to IC50 for human SW480 cells; format: toxicity; details: read-out: Ratio CC50/IC50
# HL-60 [15] = assay: Antiproliferative activity against human HL-60 cells incubated for 48 hrs by MTT assay; format: functional, cell-based; details: HL-60, 48 h
# A549 [16] = assay: Antiproliferative activity against human A549 cells incubated for 48 hrs by MTT assay; format: functional, cell-based; details: A549, 48 h
# [17] = Cytotoxicity against human BEAS2B cells; format: cell-based; details: BEAS-2B cells
# [18] = Selectivity index, ratio of CC50 for human BEAS2B cells to IC50 for human MCF7 cells; format: toxicity; details: read-out: Ratio CC50/IC50
# SW480 [19] = assay: Antiproliferative activity against human SW480 cells incubated for 48 hrs by MTT assay; format: functional, cell-based; details: SW480, 48 h
# [20] = Selectivity index, ratio of CC50 for human BEAS2B cells to IC50 for human SMMC7721 cells; format: toxicity; details: read-out: Ratio CC50/IC50
# [21] = Selectivity index, ratio of CC50 for human BEAS2B cells to IC50 for human A549 cells; format: toxicity; details: read-out: Ratio CC50/IC50
# [22] = Selectivity index, ratio of CC50 for human BEAS2B cells to IC50 for human HL60 cells; format: toxicity; details: read-out: Ratio CC50/IC50
# A549 [23] = assay: Antiproliferative activity against human A549 cells by MTT assay; format: functional, cell-based
# SMMC-7721 [24] = assay: Antiproliferative activity against human SMMC-7721 cells by MTT assay; format: functional, cell-based
# MCF7 [25] = assay: Cytotoxicity against human MCF7 cells by MTT assay; format: functional, cell-based
# SW480 [26] = assay: Antiproliferative activity against human SW480 cells by MTT assay; format: functional, cell-based
# HL-60 [27] = assay: Antiproliferative activity against human HL-60 cells by MTT assay; format: functional, cell-based
# A549 [28] = assay: Antiproliferative activity against human A549 cells incubated for 72 hrs by MTT assay; format: functional, cell-based; details: A549, 72 h
# SMMC-7721 [29] = assay: Potency index, ratio of etoposide IC50 to test compound IC50 for antiproliferative activity against human SMMC7721 cells; format: functional
# SW480 [30] = assay: Potency index, ratio of etoposide IC50 to test compound IC50 for antiproliferative activity against human SW480 cells; format: functional
# MCF7 [31] = assay: Potency index, ratio of etoposide IC50 to test compound IC50 for antiproliferative activity against human MCF7 cells; format: functional
# HL-60 [32] = assay: Potency index, ratio of etoposide IC50 to test compound IC50 for antiproliferative activity against human HL60 cells; format: functional
structure (smiles),measurement,setting,value
COc1cc([C@@H]2c3cc4c(cc3[C@@H](NC(=S)NC(=O)c3ccccc3)[C@H]3COC(=O)[C@H]23)OCO4)cc(OC)c1OC,Ratio IC50,HCT-116 [1],49
same,IC50,A549 [2],100 nM
same,IC50,HepG2 [3],100 nM
same,IC50,HCT-116 [4],100 nM
same,Ratio IC50,HepG2 [5],49
same,Ratio IC50,A549 [6],49
COc1cc([C@@H]2c3cc4c(cc3[C@@H](NCC(F)(F)[C@]3(O)O[C@H](CO)[C@@H](O)[C@H](O)[C@H]3O)[C@H]3COC(=O)[C@H]23)OCO4)cc(OC)c1OC,half-life,[7],67.8 min
same,clearance,[8],19 mL/min/kg
same,MRT,[9],16.2 min
same,C0,[10],8780 ng/mL
same,AUC(0-inf),[11],2210 ng·h/mL
COc1cc([C@@H]2c3cc4c(cc3[C@@H](OCc3cn([C@@H]5O[C@H](COC(C)=O)[C@@H](OC(C)=O)[C@H](OC(C)=O)[C@H]5OC(C)=O)nn3)[C@H]3COC(=O)[C@H]23)OCO4)cc(OC)c1OC,IC50,DU-145,1020 nM
CCCC(=O)OC[C@H]1O[C@@H](OC(COCc2cn([C@@H]3c4cc5c(cc4[C@@H](c4cc(OC)c(OC)c(OC)c4)[C@H]4C(=O)OC[C@@H]43)OCO5)nn2)COCc2cn([C@@H]3c4cc5c(cc4[C@@H](c4cc(OC)c(OC)c(OC)c4)[C@H]4C(=O)OC[C@@H]43)OCO5)nn2)[C@H](OC(=O)CCC)[C@@H](OC(=O)CCC)[C@@H]1OC(=O)CCC (stereo partly drawn),IC50,MCF7 [12],430 nM
same,IC50,SMMC-7721 [13],430 nM
same,selectivity ratio,[14],4.3
same,IC50,HL-60 [15],430 nM
same,IC50,A549 [16],430 nM
same,CC50,[17],15400 nM
same,selectivity ratio,[18],4.3
same,IC50,SW480 [19],430 nM
same,selectivity ratio,[20],4.3
same,selectivity ratio,[21],4.3
same,selectivity ratio,[22],4.3
COc1cc([C@@H]2c3cc4c(cc3[C@@H](n3cc(CO[C@@H]5O[C@H](CO[C@@H]6O[C@H](CO)[C@@H](O)[C@H](O)[C@H]6O)[C@@H](O)[C@H](O)[C@H]5O)nn3)[C@H]3COC(=O)[C@H]23)OCO4)cc(OC)c1OC,IC50,A549 [23],670 nM
same,IC50,SMMC-7721 [24],670 nM
same,IC50,MCF7 [25],670 nM
same,IC50,SW480 [26],670 nM
same,IC50,HL-60 [27],670 nM
COc1cc([C@@H]2c3cc4c(cc3[C@@H](n3cc(CO[C@H]5O[C@H](CO)[C@H](O)[C@H](O)[C@H]5O)nn3)[C@H]3COC(=O)[C@H]23)OCO4)cc(OC)c1O,IC50,MCF7 [12],2850 nM
same,IC50,SMMC-7721 [13],2850 nM
same,IC50,A549 [28],2850 nM
same,Ratio IC50,SMMC-7721 [29],2
same,IC50,HL-60 [15],2850 nM
same,Ratio IC50,SW480 [30],2
same,Ratio IC50,MCF7 [31],2
same,IC50,SW480 [19],2850 nM
same,Ratio IC50,A549 [6],2
same,Ratio IC50,HL-60 [32],2
